Reference: PMC7915765, “Biochemical Characterization, Specificity and Inhibition Studies of HTLV-1, HTLV-2, and HTLV-3 Proteases” (Life, 2021)
*1 amine or outer side, *2 acyl side, *3 side chain or, on linkers, in order; H or OH if unused. Where a SMILES comes first, the peptide text is derived from it. Side-chain parts run from the residue outwards. [ ]: non-standard residue; d: D form. LeuΨ(CH2N)Pro = CC(C)C[C@@H](CN1CCC[C@H]1C(=O)[*:2])N[*:1]; X1 = CC(C)C[C@@H](CN([C@H](C(=O)[*:2])C(C)C)[*:1])N[*:3]

B1: ASPRV1: human retroviral-like aspartic protease 1 (literature) (protein, UniProt Q53RT3 191-326, looked up)
Retroviral-like aspartic …: SMGKGYYLKGKIGKVPVRFLVDSGAQVSVVHPNLWEEVTDGDLDTLQPFENVVKVANGAEMKILGVWDTAVSLGKLKLKAQFLVANASAEEAIIGTDVLQDHNAILDFEHRTCTLKGKKFRLLPVGGSLEDEFDLE

Columns and labels:
HTLV-2 PR [1] = target: T1, HTLV-2 PR (Human T-cell leukemia virus 2, UniProt P03363); assay: Inhibition study with HIV-1 PIs, HTLV-2 PR; type: biochemical, human T-cell leukemia virus type 2; parameters: made in house; host or cells: E. coli BL21(DE3); settings: inhibitor 1 µM final; for loss of activity: substrate HTLV-2 MA/CA 0.40–0.43 mM, DMSO control = 100%, n = 2
T1 sequence (P03363 447-571): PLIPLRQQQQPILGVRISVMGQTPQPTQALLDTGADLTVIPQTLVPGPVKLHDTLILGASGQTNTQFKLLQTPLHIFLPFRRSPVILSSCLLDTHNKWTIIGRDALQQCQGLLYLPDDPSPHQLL
Protocol: The inhibitors were dissolved in DMSO.

HTLV-1 PR [2] = assay: Inhibition study with HIV-1 PIs, HTLV-1 PR; type: biochemical, human T-cell leukemia virus type 1; settings: inhibitor 1 µM final
Protocol: (§1) The IB-268 (KTKVL-r-VVQPK) and IB-269 (APQVL-r-PVMHP) reduced peptide bond (-r-)-containing inhibitors, which were synthesized by Dr. Ivo Blaha (Ferring Leciva, Prague, Czech Republic).
(§2) The reaction mixtures were prepared to contain 4.8 µL of substrate (in 0.40–0.43 mM final concentration), 0.2 µL of inhibitor, 5 µL of the enzyme, and 10 µL of a 2× incubation buffer. The substrates representing HTLV-2 and HTLV-3 MA/CA cleavage sites were used for HTLV-2 and HTLV-3 PRs, respectively. In the case of HIV-1 PIs, we applied 100 µM inhibitor stocks, while 0.5–100 µM stocks of IB-268 and IB-269 were used for screening. The inhibitors were dissolved in DMSO. Therefore, 0.2 µL of DMSO was added to the control samples.

HTLV-3 PR [3] = target: T2, HTLV-3 PR (Human T-cell leukemia virus 3, UniProt Q4U0X6); assay: Inhibition study with HIV-1 PIs, HTLV-3 PR; type: biochemical; parameters: made in house; host or cells: E. coli BL21(DE3), pET11a; settings: inhibitor 1 µM final; for loss of activity: substrate HTLV-3 MA/CA 0.40–0.43 mM, DMSO control = 100%, n = 2
T2 sequence (Q4U0X6 431-553): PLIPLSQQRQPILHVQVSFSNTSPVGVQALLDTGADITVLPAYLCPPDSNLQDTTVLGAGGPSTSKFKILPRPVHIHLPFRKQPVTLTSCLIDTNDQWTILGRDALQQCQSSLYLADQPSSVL
Protocol: as §1, §2

ATLL cells = test system: ATLL cells; parameters: method as in PMID 16174765; settings: ATLL cells ex vivo; ref [54]; cited from earlier work
[4] = test system: NF-κB transcriptional activation; parameters: method as in PMID 18316517; settings: ATLL cells; ref [55]; cited from earlier work
HTLV-2 PR [5] = target: T1, HTLV-2 PR; assay: biochemical
Protocol: (§3) The reaction mixtures were prepared to contain 4.8 µL of substrate (in 0.40–0.43 mM final concentration), 0.2 µL of inhibitor, 5 µL of the enzyme, and 10 µL of a 2× incubation buffer. The substrates representing HTLV-2 and HTLV-3 MA/CA cleavage sites were used for HTLV-2 and HTLV-3 PRs, respectively. […] The inhibitors were dissolved in DMSO. Therefore, 0.2 µL of DMSO was added to the control samples.

HTLV-3 PR [6] = target: T2, HTLV-3 PR; assay: biochemical
Protocol: as §3

HTLV-1 PR [7] = test system: HTLV-1 PR; parameters: method as in 2 sources, ref [41] = [41]; PMID 15158589; doi:10.1016/j.jviromet.2004.03.001; 41. Bagossi P. Kádas J. Miklóssy G. Boross P. Weber I.T. Tözsér J. Development of a microtiter plate fluorescent assay for inhibition studies on the HTLV-1 and HIV-1 proteinases J. Virol. Methods 2004 ||| ref [28] = [28]; PMID 15102858; doi:10.1074/jbc.M401868200; 28. Kádas J. Weber I.T. Bagossi P. Miklóssy G. Boross P. Oroszlan S. Tözsér J. Narrow substrate specificity and sensitivity toward ligand-binding site mutations of human T-cell leukemia virus type 1 p; settings: ref [28]; cited from earlier work
Source text: (a) Comparison of relative activities determined in the presence of HIV-1 PIs applied in a 1-µM final concentration. For control measurements, reaction mixtures contained no inhibitor. Activity determined in the presence of DMSO was considered to be 100%. Error bars represent SD (n = 2). […] We repeated these experiments in our system for HTLV-2 and HTLV-3 PRs.

[8] = ASPRV1; ref [51]; cited from earlier work
Protocol: The dependence of enzyme activity on pH was studied in a 4.5–8.0 range. […] Our results imply that the optimal pH of HTLV-1 PR is higher than it was determined previously by Ha et al. (pH 5.2–5.3). The optimal pH determined for HTLV PRs is similar to the slightly acidic pH optimum of retroviral and retroviral-like proteases, including the HIV-1 PR (pH 4.0–6.0 range), the BLV PR (pH 4.0–6.5 range), ...

| Molecule | inhibitory effect (in words) (HTLV-2 PR [1]) | loss of activity (HTLV-2 PR [1]) [%] | inhibitory effect (in words) (HTLV-1 PR [2]) | inhibitory effect (in words) (HTLV-3 PR [3]) | loss of activity (HTLV-3 PR [3]) [%] | Ki (HTLV-2 PR [5]) [nM] | Ki (HTLV-3 PR [6]) [nM] | other results |
| --- | --- | --- | --- | --- | --- | --- | --- | --- |
| CC(C)CN(C[C@@H](O)[C@H](Cc1ccccc1)NC(=O)O[C@H]1CO[C@H]2OCC[C@H]21)S(=O)(=O)c1ccc(N)cc1 [darunavir] | highest inhibition | < 50 | highest inhibition | highest inhibition | < 50 |  |  |  |
| CC(C)c1nc(CN(C)C(=O)N[C@H](C(=O)N[C@@H](Cc2ccccc2)C[C@H](O)[C@H](Cc2ccccc2)NC(=O)OCc2cncs2)C(C)C)cs1 [ritonavir] | did not inhibit | < 50 | not an effective inhibitor | did not inhibit | < 50 |  |  | anti-leukemic activity (ATLL cells): anti-leukemic activity against ATLL cells ex vivo; inhibition of NF-κB transcriptional activation [4]: ritonavir-dependent inhibition of NF-κB transcriptional activation |
| CC(C)C[C@@H](CN[C@H](C(=O)N[C@H](C(=O)N[C@@H](CCC(N)=O)C(=O)N1CCC[C@H]1C(=O)N[C@@H](CCCCN)C(=O)O)C(C)C)C(C)C)NC(=O)[C@@H](NC(=O)[C@H](CCCCN)NC(=O)[C@@H](NC(=O)[C@@H](N)CCCCN)[C@@H](C)O)C(C)C [IB-268] (H-[X1]([Val-Lys-Thr-Lys])VQPK-OH) |  |  |  |  |  | 37 | 214 |  |
| CC(C)(C)NC(=O)[C@@H]1CN(Cc2cccnc2)CCN1C[C@@H](O)C[C@@H](Cc1ccccc1)C(=O)N[C@H]1c2ccccc2C[C@H]1O [indinavir] | highest inhibition | < 50 | highest inhibition | highest inhibition | < 50 |  |  | inhibition of wild-type HTLV-1 PR (in words) (HTLV-1 PR [7]): relatively good inhibitors; decrease of HTLV-1 PR activity (HTLV-1 PR [2]; DMSO control = 100%, n = 2): ~ 50% |
| CSCC[C@H](NC(=O)[C@@H](NC(=O)[C@@H]1CCCN1C[C@H](CC(C)C)NC(=O)[C@@H](NC(=O)[C@H](CCC(N)=O)NC(=O)[C@@H]1CCCN1C(=O)[C@H](C)N)C(C)C)C(C)C)C(=O)N[C@@H](Cc1c[nH]cn1)C(=O)N1CCC[C@H]1C(=O)O [IB-269] (H-APQV[LeuΨ(CH2N)Pro]VMHP-OH) |  |  |  |  |  | 12 | 14 |  |
| B1 |  |  |  |  |  |  |  | pH optimum [8]: 6.27 ± 0.02 |
